This note sets out measurements from paper PMC3164379, “Three New Compounds from Aspergillus terreus PT06-2 Grown in a High Salt Medium” (Marine Drugs, 2011).

Converted amounts (≈) assume the structure as drawn. Where two headings read alike, the source gives them in different places.

The subject of series [1] is influenza virus (A/Puerto Rico/8/34 (H1N1), PR/8). Nature of the series: Antiviral activity against H1N1, CPE inhibition assay. The series is classed as cell-based. The settings on record: read-out: IC50 anti-H1N1 activity.
A short description of series [2]: Cytotoxicity against confluent MDCK cells by MTT method. The series is classed as cell-based. The settings on record: dog, read-out: CC50 (50% cytotoxicity concentration). Background: Tetrazolium dyes change colour on reduction, which living cells bring about.
Procedure: (§1) Cytotoxicity against HL-60 and BEL-7402 cancer cell lines and confluent MDCK cells was assayed by the MTT method [28]. Cell lines were grown in RPMI-1640 supplemented with 10% FBS under a humidified atmosphere of 5% CO2 and 95% air at 37 °C. […] Then, 2 μL of the test solutions (in MeOH) were added to each well and further incubated for 72 h. The MTT solution (20 μL, 5 mg/mL in IPMI-1640 medium) was then added to each well and incubated for 4 h. Old medium containing MTT (150 μL) was then gently replaced by DMSO and pipetted to dissolve any formazan crystals formed. Absorbance was then determined on a SPECTRA MAX PLUS plate reader at 540 nm. The CC50 was calculated as the compound concentration necessary to reduce cell viability by 50%.
The subject of a further series is HL-60 cell line. Nature of the series: in vitro. The settings on record: human.
In another series the test system is Enterobacter aerogenes. Nature of the series: Antimicrobial activity, agar dilution method. The settings on record: for MIC Enterobacter aerogenes: agar dilution, paper disks, 24 h incubation, 37 °C; for MIC: Klebsiella aerogenes, 24 h, read-out: MIC Enterobacter aerogenes.
For a further series, the system named is Pseudomonas aeruginosa. Nature of the series: Antimicrobial activity, agar dilution method. The settings on record: for MIC Pseudomonas aeruginosa: agar dilution, paper disks, 24 h incubation, 37 °C; for MIC: Pseudomonas aeruginosa, 24 h. A general note: Agar dilution tests growth on a series of plates holding different concentrations.
For a further series, the system named is Staphylococcus aureus. Nature of the series: Antimicrobial activity, agar dilution method. The settings on record: for MIC Staphylococcus aureus: agar dilution, paper disks, 24 h incubation, 37 °C; for MIC: Staphylococcus aureus, 24 h, read-out: MIC Staphylococcus aureus.
For a further series, the system named is Candida albicans. Nature of the series: Antimicrobial activity, agar dilution method. To be noted: for MIC: Candida albicans, 24 h, read-out: MIC Candida albicans.
The subject of the next series is BEL-7402 cell line. Nature of the series: in vitro. The settings on record: human.
Where [3] appears, read: read-out: MIC Pseudomonas aeruginosa, agar dilution, paper disks, 24 h incubation, 37 °C.

Procedure for BEL-7402 cell line: as §1
Procedure for Candida albicans: (§2) Antimicrobial activity against E. aerogenes, P. aeruginosa, S. aureus and C. albicans was evaluated using an agar dilution method [29]. The tested strains were cultivated in LB agar plates for bacteria and in YPD agar plates for C. albicans, at 37 °C. Compounds and positive controls were dissolved in 5% DMSO-H2O at different concentrations from 1000 to 62.5 μg/mL and then from 50 to 0.78 μg/mL, using continuous 2-fold dilution. The test solutions (5 μL) were absorbed onto paper disks (5 mm diameter) and placed on the assay plates. After 24 h incubation, zones of inhibition (mm in diameter) were recorded. The minimum inhibitory concentrations were defined as the lowest concentration at which an inhibition zone could be observed.
Procedure for Enterobacter aerogenes: as §2
Procedure for HL-60 cell line: as §1
Procedure for Pseudomonas aeruginosa: as §2
Procedure for Staphylococcus aureus: as §2

As a reminder, the IC50 is the point on the concentration scale where inhibition reaches its midpoint. In the case of `COC(=O)[C@]1(Cc2ccc(O)c(CC=C(C)C)c2)OC(=O)C(O)=C1c1ccc(O)cc1` [Compound 5, butyrolactone I], in series [1] (MDCK, 48 h), the IC50 amounted to 143 µM. For the same compound, the CC50 at 72 h in series [2] stood at 976 µM. Besides, in the series with HL-60 cell line, it took 57.5 µM to reach half-maximal inhibition (IC50 at 72 h).
On to `C/C=C/C1=CC(=O)[C@@H](O)[C@@H]1O` [Compound 15, (+)-terrein], for which the “MIC Enterobacter aerogenes” value in the series with Enterobacter aerogenes is over 100 µM. For the same compound, in the series with Pseudomonas aeruginosa, the “MIC Pseudomonas aeruginosa” value was over 100 µM. Besides, the “MIC Staphylococcus aureus” value with Staphylococcus aureus is over 100 µM. In addition, in the series on Candida albicans (agar dilution, YPD agar, paper disks, 24 h incubation, 37 °C), the “MIC Candida albicans” value was over 100 µM.
One may read the MIC as the smallest concentration in the dilution series that meets the test's criterion for growth inhibition. As for `COC(=O)c1cccc(O)c1-n1c(-c2cccnc2)nc2ccccc2c1=O` [Compound 2, methyl 3-hydroxy-2-(4-oxo-2-(pyridin-3-yl)quinazolin-3(4H)-yl)benzoate], the MIC in the series on Enterobacter aerogenes was 33.5 µM (≈ 12.5 µg/mL); in the series with Pseudomonas aeruginosa (setting [3]), over 100 µM; with Staphylococcus aureus it was over 100 µM; with Candida albicans, over 100 µM.
Turning to `COC(=O)c1cc(OC)c(OC)c(OC)c1NC(=O)c1ccccc1NC(=O)c1cccnc1` [Compound 4, methyl 3,4,5-trimethoxy-2-(2-(nicotinamido)benzamido)benzoate], the MIC was over 100 µM in the series with Enterobacter aerogenes, over 100 µM with Pseudomonas aeruginosa (setting [3]), 52.4 µM (≈ 24.4 µg/mL) with Staphylococcus aureus and over 100 µM in the series on Candida albicans.
Take `COC(=O)[C@]1(Cc2ccc(O)c(CCC(C)(C)O)c2)OC(=O)C(O)=C1c1ccc(O)cc1` [Compound 3, (R)-methyl 4-hydroxy-2-(4-hydroxy-3-(3-hydroxy-3-methylbutyl)benzyl)-3-(4-hydroxyphenyl)-5-oxo-2,5-dihydrofuran-2-carboxylate]: the MIC with Enterobacter aerogenes, in the series with Pseudomonas aeruginosa (read-out: MIC Pseudomonas aeruginosa), with Staphylococcus aureus and in the series with Candida albicans was over 100 µM each time.
With `CC(=O)N1CCN(c2ccc(OCC3COC(Cn4ccnc4)(c4ccc(Cl)cc4Cl)O3)cc2)CC1` (stereo not shown) [Ketoconazole, reference compound], in the series on Candida albicans, the MIC is 5 µM (≈ 2.66 µg/mL).
Regarding `COc1cc([C@@H]2c3cc4c(cc3[C@@H](O[C@@H]3O[C@@H]5CO[C@@H](C)O[C@H]5[C@H](O)[C@H]3O)[C@H]3COC(=O)[C@H]23)OCO4)cc(OC)c1O` [Vp-16, Etoposide, reference compound], the IC50 at 72 h in the series on HL-60 cell line was 0.042 µM; with BEL-7402 cell line, 0.83 µM.
Turning to `NC(=O)c1ncn([C@@H]2O[C@H](CO)[C@@H](O)[C@H]2O)n1` [Ribavirin, reference compound], the IC50 in series [1] (CPE inhibition in MDCK cells, 48 h post-infection) was determined as 101 µM.
In the case of `CC(O)C(=O)O.O=C(O)c1cn(C2CC2)c2cc(N3CCNCC3)c(F)cc2c1=O` [Ciprofloxacinlactate, reference compound], in the series on Enterobacter aerogenes, the “MIC Enterobacter aerogenes” value is 1 µM. Also, the “MIC Pseudomonas aeruginosa” value against Pseudomonas aeruginosa was 30 µM. Further, in the series on Staphylococcus aureus, the “MIC Staphylococcus aureus” value stood at 1 µM.
For the compound `COC(=O)c1cccc(O)c1NC(=O)c1ccccc1NC(=O)c1cccnc1` [Compound 1, methyl 3-hydroxy-2-(2-(nicotinamido)benzamido)benzoate], the MIC with Enterobacter aerogenes was over 100 µM; with Pseudomonas aeruginosa (setting [3]), 63.9 µM (≈ 25 µg/mL); in the series on Staphylococcus aureus it was 63.9 µM (≈ 25 µg/mL); in the series with Candida albicans it was over 100 µM. The “MIC Pseudomonas aeruginosa” value in the series with Pseudomonas aeruginosa was over 100 µM.
